Here are results for one substance from patent publication US20040074447A1, “Methods of reducing incidence of stillborn pigs by using progesterone receptor antagonists” (priority 2002, published 2004).

Where “and” joins values, the source holds several entries; their conditions need not be identical. Identical values can stand only once. Entries after “also recorded” stand apart in the source; their conditions may differ. Marks after values point to notes of the source that are not given here.

The subject of this series is pregnant crossbred female swine. Put plainly: Example 2: induction of farrowing in pregnant gilts, oral CP161,258 (two doses or single dose) or intramuscular porcine relaxin. The note with it: for effects on time to birth of the first pig, number born alive, or stillborns: 1200 U porcine relaxin IM on day 113. In kind it is in vivo. How it is done:
Animals. […] This BW was used to calculate the amount of test article to administer (T2 and T3).
Randomization of animals. Animals were ranked according to expected farrowing date and then randomly assigned to treatment within blocks of 4 animals each.
Test article administration. […] For treatment groups T2 and T3, test article was diluted (a suspension) to a concentration of 25 mg/ml in 50% propylene glycol and stored refrigerated (2-8° C.).
For treatment groups T2 and T3, animals were snared and test article was administered orally using a 60 ml syringe. […] One container of approximately 440 ml was mixed and used within each week of the 3 wk study. Each animal assigned to T2 or T3 also received approximately 30 ml of tap water to insure that test article was swallowed.
Porcine relaxin was diluted to a concentration of 1200 U/ml in sterile physiological saline on the first day of use. Diluted porcine relaxin was stored in a locked refrigerator and removed only when injections took place. Relaxin (1 ml-T4) was administered intramuscularly in the lower part of the ham of either leg with an 18-gauge, 1.5″ long needle attached to a 3 ml syringe.
Administration of test articles occurred between 7:30 am and 8:30 am on almost all days of the study.
Piglets. Response variables measured in this study were: hours from the 1st treatment to the birth of the 1st pig, number of piglets that were alive at birth (born alive), stillborn (normal appearance term piglet, but dead at time of birth), and mummies (smaller than littermates, decayed at birth). Animals were not processed (no iron shots, no clipping of needle teeth, no individual identification), but umbilical cords were clipped to […]. length if animals could not be euthanized within 2 days after birth.
Data/Analyses. […] Data were analyzed using a mixed model analysis with block as a random effect and treatment as a fixed effect (proc mixed, SAS).

The mark [1] stands for this setting: T4: 1200 U pRelaxin intramuscular day 113, counted from (day 113), mean ± SD.
Where [2] appears, read: T4: 1200 U pRelaxin intramuscular day 113, mean.
Setting [3] is: Treatment 4: 1200 IU Relaxin intramuscular day 113, individual animals.

As to Porcine relaxin, the “effects on time to birth of the first pig, number born alive, or stillborns” value was “not effective”. Besides, the “effects on time to birth of the first pig, number born alive, or stillborns” value (listed as porcine relaxin) is listed as “did not have beneficial effects”. In addition, under setting [1], the “Hr, Dose d 112 To 1st pig ± SD” value is recorded as 56 ± 26 (13) Hr and the “Hr, Dose d 113 To 1st pig ± SD” value is 56 ± 26^d (13) Hr. For the same substance, under setting [2], the “Piglet data: Born alive” value is listed as 6.4 (12), the “Piglet data: Mummies” value is recorded as 0.3 (12) and the “Piglet data: Stillborn” value is 1.6 (12). Under “T4 Relaxin, individual animals”, the “Reason (animals with incomplete data)” value was “Dystocia (born alive, stillborns, mummy count; also recorded: Dystocia-(born alive, stillborns, mummy count”. Besides, under setting [3], the “Born Alive” value was 6 (3×) and 3 and 8 and 4 (2×) and 9 (2×) and 1 and 14 and 7; the “Hr, 1st treatment to 1st pig” value is 10.9 h and 25.3 h and 34.2 h and 47.4 h and 48.5 h and 49.2 h and 49.7 h and 51 h and 69.9 h and 74.9 h and 77.2 h and 82.4 h and 106.3 h; the Mummies was 2 and 0 (10×) and 1; the Still-born is 5 and 0 (2×) and 1 (4×) and 2 (5×).
